From ChEMBL document CHEMBL1154653, “Discovery and pharmacological characterization of aryl piperazine and piperidine ethers as dual acting norepinephrine reuptake inhibitors and 5-HT1A partial agonists” (Bioorg Med Chem Lett, 2009)

Experiments:
[1] = biological target: T1, 5-hydroxytryptamine receptor 1A (Homo sapiens, UniProt P08908); assay: biochemical
T1 sequence (P08908 whole entry): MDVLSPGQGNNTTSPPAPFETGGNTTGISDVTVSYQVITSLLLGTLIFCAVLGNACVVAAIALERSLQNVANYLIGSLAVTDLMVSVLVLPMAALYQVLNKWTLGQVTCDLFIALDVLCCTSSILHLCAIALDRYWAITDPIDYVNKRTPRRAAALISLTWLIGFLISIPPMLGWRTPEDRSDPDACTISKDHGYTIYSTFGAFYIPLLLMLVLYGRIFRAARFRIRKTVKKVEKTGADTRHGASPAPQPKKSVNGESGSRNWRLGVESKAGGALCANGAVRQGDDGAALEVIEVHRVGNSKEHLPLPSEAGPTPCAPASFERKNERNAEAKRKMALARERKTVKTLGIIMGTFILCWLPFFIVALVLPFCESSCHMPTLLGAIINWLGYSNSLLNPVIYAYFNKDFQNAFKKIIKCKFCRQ
Description: Displacement of [3H]8-OH-DPAT from human 5HT1A receptor expressed in CHO cells

[2] = biological target: T2, Sodium-dependent dopamine transporter (Homo sapiens, UniProt Q01959); format: cell-based, HEK293
[3] = biological target: T3, Sodium-dependent noradrenaline transporter (Homo sapiens, UniProt P23975); assay: biochemical
Description: Displacement of [125I]RTI-55 from human NET expressed in HEK293 cells

[4] = biological target: T4, Sodium-dependent serotonin transporter (Homo sapiens, UniProt P31645); assay: biochemical
Description: Displacement of [125I]RTI-55 from human SERT expressed in HEK293 cells

[5] = biological target: T3, Sodium-dependent noradrenaline transporter; assay: Inhibition of norepinephrine uptake at human NET expressed in HEK293 cells; format: cell-based
[6] = biological target: T2, Sodium-dependent dopamine transporter; assay: Inhibition of dopamine uptake at human DAT expressed in HEK293 cells; format: cell-based
[7] = biological target: T4, Sodium-dependent serotonin transporter; assay: Inhibition of [3H]5-HT uptake at human 5HTT expressed in HEK293 cells; format: cell-based
[8] = biological target: T1, 5-hydroxytryptamine receptor 1A; assay: Partial agonist activity at human 5HT1A expressed in HEK293 cells by FLIPR assay; format: functional, cell-based
[9] = biological target: T5, 5-hydroxytryptamine receptor 1A (Homo sapiens) (UniProt P08908); assay: Partial agonist activity at human 5HT1A expressed in HEK293 cells by FLIPR assay relative to 5HT; format: functional, cell-based
T5 sequence (whole entry): T1 sequence (P08908 whole entry)

[10] = Apparent intrinsic clearance in human liver microsomes; format: ADME, Microsome
Rattus norvegicus [11] = assay: Ex vivo receptor occupancy at 5HT1A receptor in Sprague-Dawley rat brain at 10 mg/kg, sc by [3H]-OH-DAPT binding; format: functional; settings: route subcutaneous
Rattus norvegicus [12] = assay: Ex vivo receptor occupancy at NET receptor in Sprague-Dawley rat brain at 10 mg/kg, sc by [3H]nisoxetine binding; format: functional; settings: route subcutaneous

T3 sequence (P23975 whole entry): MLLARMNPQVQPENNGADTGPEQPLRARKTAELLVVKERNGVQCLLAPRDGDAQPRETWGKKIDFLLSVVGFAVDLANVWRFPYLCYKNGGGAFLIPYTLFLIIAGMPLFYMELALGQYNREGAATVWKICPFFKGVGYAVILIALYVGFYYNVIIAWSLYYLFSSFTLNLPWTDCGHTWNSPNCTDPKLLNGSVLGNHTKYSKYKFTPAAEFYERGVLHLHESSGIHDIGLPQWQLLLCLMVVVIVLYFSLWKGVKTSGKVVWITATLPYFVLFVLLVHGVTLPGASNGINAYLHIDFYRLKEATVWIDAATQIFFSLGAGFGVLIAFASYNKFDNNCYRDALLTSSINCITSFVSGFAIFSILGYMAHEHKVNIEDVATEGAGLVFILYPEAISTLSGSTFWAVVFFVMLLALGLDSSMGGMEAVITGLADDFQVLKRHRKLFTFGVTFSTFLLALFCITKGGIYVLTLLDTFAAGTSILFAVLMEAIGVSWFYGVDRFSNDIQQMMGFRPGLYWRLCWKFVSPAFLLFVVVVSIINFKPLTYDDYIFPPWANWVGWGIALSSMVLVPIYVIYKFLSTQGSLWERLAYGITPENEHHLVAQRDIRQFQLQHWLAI
T2 sequence (Q01959 whole entry): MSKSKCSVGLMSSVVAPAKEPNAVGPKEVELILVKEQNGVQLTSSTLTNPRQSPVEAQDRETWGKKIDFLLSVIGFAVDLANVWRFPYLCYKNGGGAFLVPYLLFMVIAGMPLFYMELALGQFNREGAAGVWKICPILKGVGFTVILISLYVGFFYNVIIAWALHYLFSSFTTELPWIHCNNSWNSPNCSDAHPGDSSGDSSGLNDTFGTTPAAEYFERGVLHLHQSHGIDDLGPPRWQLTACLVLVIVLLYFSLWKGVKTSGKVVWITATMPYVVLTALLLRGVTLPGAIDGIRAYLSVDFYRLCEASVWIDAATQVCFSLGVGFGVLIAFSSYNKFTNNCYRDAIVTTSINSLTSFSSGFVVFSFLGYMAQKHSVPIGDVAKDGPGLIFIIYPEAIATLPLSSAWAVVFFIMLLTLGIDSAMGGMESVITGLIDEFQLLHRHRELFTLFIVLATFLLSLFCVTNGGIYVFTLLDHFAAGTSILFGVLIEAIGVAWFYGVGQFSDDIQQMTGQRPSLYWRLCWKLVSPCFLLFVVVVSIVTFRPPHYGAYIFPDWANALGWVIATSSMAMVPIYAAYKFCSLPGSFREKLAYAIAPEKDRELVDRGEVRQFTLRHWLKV
T4 sequence (P31645 whole entry): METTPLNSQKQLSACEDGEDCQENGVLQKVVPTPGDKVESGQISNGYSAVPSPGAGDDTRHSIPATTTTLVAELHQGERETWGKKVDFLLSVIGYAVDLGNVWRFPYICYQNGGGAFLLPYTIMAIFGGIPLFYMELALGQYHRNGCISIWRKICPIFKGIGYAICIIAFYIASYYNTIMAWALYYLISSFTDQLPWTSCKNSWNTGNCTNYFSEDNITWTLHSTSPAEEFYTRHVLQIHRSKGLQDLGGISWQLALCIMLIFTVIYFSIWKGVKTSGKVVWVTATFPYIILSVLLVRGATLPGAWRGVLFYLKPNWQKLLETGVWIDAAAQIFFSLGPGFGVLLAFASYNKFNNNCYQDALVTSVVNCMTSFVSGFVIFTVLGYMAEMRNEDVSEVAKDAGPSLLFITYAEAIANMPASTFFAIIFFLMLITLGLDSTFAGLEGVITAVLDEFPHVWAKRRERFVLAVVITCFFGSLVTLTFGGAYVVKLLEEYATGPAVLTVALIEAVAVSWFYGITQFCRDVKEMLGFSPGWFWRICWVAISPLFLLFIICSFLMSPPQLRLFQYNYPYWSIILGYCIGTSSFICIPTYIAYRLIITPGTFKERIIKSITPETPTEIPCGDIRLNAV

Compound | Ki [1] | Ki [2] | Ki [3] | Ki [4] | also measured
c1ccc(OCc2ccccc2C2CCNCC2)cc1 | > 1000 nM | 396 nM | 1710 nM | 364 nM | –
Fc1ccccc1COc1ccccc1N1CCNCC1 | 31 nM | > 10000 nM | 526 nM | 978 nM | –
Fc1cccc(Oc2ccccc2N2CCNCC2)c1 | 9 nM | – | – | – | –
Cc1ccc(C2CCNCC2)c(Oc2ccc(F)cc2)c1 | > 4570 nM | 1680 nM | 115 nM | 427 nM | –
Fc1cccc(C2CCNCC2)c1Oc1ccccc1 | 20 nM | 239 nM | 1370 nM | 2330 nM | EC50 [5]: 358 nM; EC50 [6]: 982 nM; EC50 [7]: 1760 nM; EC50 [8]: 877 nM; Emax [9]: 35%; microsomal CLint [10]: 15 µL/min/mg
O=C1/C(=C/c2ccccc2N2CCNCC2)SCCN1c1ccc(F)cc1F | 4 nM | 1360 nM | 650 nM | 98 nM | –
Fc1cccc(OCc2ccccc2N2CCNCC2)c1 | 116 nM | > 2000 nM | 104 nM | 17 nM | –
c1ccc(N2CCNCC2)c(COc2ccccc2C2CC2)c1 | 466 nM | – | – | – | –
c1ccc(COc2ccccc2C2CCNCC2)cc1 | 121 nM | 1000 nM | 76 nM | 74 nM | –
Fc1ccc(COc2ccc(Cl)cc2C2CCNCC2)cc1 | > 1000 nM | 5530 nM | 6 nM | 40 nM | –
Fc1ccc(OCc2ccc(Cl)c(Cl)c2)c(C2CCNCC2)c1 | 1160 nM | 452 nM | 20 nM | 2 nM | –
c1ccc(OCc2ccccc2N2CCNCC2)cc1 | 189 nM | 701 nM | – | 780 nM | –
Fc1cccc(Oc2cccc(F)c2C2CCNCC2)c1 | 21 nM | – | – | – | Activity (Rattus norvegicus [11]): 77%; EC50 [8]: 137 nM; Activity (Rattus norvegicus [12]): 80%; Emax [9]: 74%
Fc1ccc(Oc2cc(F)c(F)cc2C2CCNCC2)cc1 | > 4570 nM | – | – | – | –
Fc1cccc(C2CCNCC2)c1OCc1ccccc1 | 606 nM | 7370 nM | 9 nM | 2970 nM | –
Fc1ccccc1COc1ccccc1C1CCNCC1 | 47 nM | – | – | – | –

Compound | Ki [1] | Ki [2] | Ki [3] | Ki [4] | also measured
Fc1cccc(Oc2ccccc2C2CCNCC2)c1 | – | – | – | – | Emax [9]: 51%
Cc1ccc(F)c(Oc2ccccc2C2CCNCC2)c1 | 57 nM | 1080 nM | 3 nM | 26 nM | –
Fc1cccc(OCc2ccccc2C2CCNCC2)c1 | > 1000 nM | 461 nM | 1940 nM | 49 nM | –
Cc1ccc(C2CCNCC2)c(Oc2cccc(F)c2)c1 | > 4570 nM | – | – | – | –
Fc1ccc(COc2ccc(F)cc2C2CCNCC2)cc1 | 2210 nM | – | – | – | –
Clc1cccc(Oc2ccccc2C2CCNCC2)c1 | 5 nM | – | – | – | EC50 [8]: 1150 nM; Emax [9]: 44%
Fc1cccc(Oc2ccccc2)c1C1CCNCC1 | 128 nM | 45 nM | 170 nM | 706 nM | –
c1ccc(Oc2ccccc2N2CCNCC2)cc1 | 128 nM | 4730 nM | 554 nM | – | –
Fc1cccc(OCc2ccccc2)c1C1CCNCC1 | 364 nM | – | – | – | –
c1ccc(Oc2ccccc2C2CCNCC2)cc1 | 63 nM | 284 nM | 416 nM | 1760 nM | –
Fc1cccc(OCc2ccccc2N2CCNCC2)c1F | 101 nM | – | – | – | –
c1ccc(COc2ccccc2N2CCNCC2)cc1 | 28 nM | – | – | – | EC50 [8]: > 10000 nM
O=C1C(Cc2ccccc2N2CCNCC2)SCCN1c1ccc(Cl)c(Cl)c1 (centres undefined) | 9 nM | 87 nM | 5 nM | 81 nM | –
Fc1ccc(Oc2ccccc2C2CCNCC2)cc1 | 117 nM | – | – | – | –
Fc1ccc(COc2ccccc2C2CCNCC2)cc1 | 77 nM | – | – | – | –
Fc1ccc(Oc2ccccc2N2CCNCC2)cc1 | 8 nM | – | – | – | –
